Assay results published in patent US7267815B2, “Methods and reagents for the enhancement of virus transduction in the bladder epithelium” (priority 2002, dated 2007).

How the values were obtained:
[1] = test system: SW780+ Luc orthotopic bladder tumor; test: DDM as chemical enhancer prior to Ad.LacZ infection of orthotopic bladder tumor model; format: in vivo, NCR nu/nu Mouse; conditions: DDM pretreatment (QQ5 minQ), 15 min Ad.Lac Z, 96 hrs; except dead necrotic tumor cells
Text: In each case, >90% Ad-βgal expression was achieved. Therefore, DDM from either manufacturer is a good candidate for a chemical enhancer for adenovirus infection in mice bladder. Efficacy of Dodecyl-β-D-Maltoside as Chemical Enhancer Prior to Adenovirus Infection of SW780+ Luc Orthotopic Bladder Tumor Model in Mice • Species: Female NCR nu/nu Mouse (Taconic Laboratory)-2/group • Study Design: To show DDM pretreatments enhance Ad.Lac Z infectivity in mice bladder urothelium. To further confirm the enhancer effect on orthotopic tumors, two mice bearing orthotopic SW780 bladder tumors were pretreated with or without DDM (QQ5 minQ) followed by 15 min Ad.Lac Z instillation. The Ad.Lac Z gene expression levels were checked in these tumor cells 4 days post Ad.Lac Z infection. • Dose/Route:
Dodecyl-β-D-Maltoside (Lot#018H7250).
Results: There was a significant difference in Ad-βgal gene expression levels between mice bladders pretreated with DDM and control animals. Without DDM pretreatment, there was very low Ad-βgal gene expression levels in bladder epithelium cells and tumor cells. With DDM pretreatment, nearly 100% of the epithelium cells were transduced with Ad-βgal gene in bladder tumors except those dead necrotic tumor cells. It was concluded that DDM pretreatment enhances Adenovirus infection in orthotopic tumor cells. […]

mice bladder urothelium = test: Effects of different diluents on adenovirus infectivity after DDM pretreatment; format: in vivo, Balb/c Mouse; conditions: DDM pretreatment (QQ5 minQ); virus diluted 100 fold with different diluents, 45 min, 1×10^9 vp/dose
Method: • Species: Female Balb/c Mouse (Taconic Laboratory)—2/group • Study Design: To test the effects of different diluents on Adenovirus infectivity of mice urothelium followed DDM pretreatment (QQ5 minQ). The virus would be diluted 100 fold with the diluents prior to instillation into mice bladder for 45 min. • Dose/Route:
Dodecyl-β-D-Maltoside (Lot #100K5308).
All the animals had >90% in Ad-βgal gene expression in mice bladder. Adenovirus Dose Titration with Different Chemical Agents Pretreatment on SD Rat Bladder Epithelium • Species: Female Sprague Dawley Rat (Taconic Laboratory)—2/group • Study Design: To test the virus infectivity of rat bladder epithelium with different doses of Adenovirus following the pretreatment with SDS or DDM. This study also explored relationship between bladder volume and residual of SDS or DDM for adenovirus infectivity. • Dose/Route: […]

bladder epithelium = test: Effect of chemical agent pretreatment on adenovirus-mediated gene transfer and expression (Ad-βgal, X-gal staining); format: in vivo, mouse (BALB/c)
Method: 152 female BALB/c mice were used this study.
The route of administration of the chemical agent and virus was intravesical.
3. Based on the reagent being tested, bladder pretreatment was performed as follows:
Poloxomer 407 procedure: Washed 2 times with 100 μl each. Retained the 3rd wash for 5 min and gave one additional wash. Performed 3 times PBS wash prior to virus instillation.
Poloxomer 188 procedure: Washed 2 times with 100 μl each. Retained the 3rd wash for 5 minutes and gave one additional wash. Performed 3 times PBS wash prior to virus instillation.
Lipofectamine 2000 procedure: Added 5 μl of stock Lipofectamine (1 mg/ml) to 195 μl of PBS-10% glycerol. Mixed with an equal volume of Ad-βgal virus and incubated for 15 minutes. Administered 100 μl of the mixture intravesically and retained in the bladder for 30 minutes.
Benzyl Alcohol procedure: Washed 2 times with 100 μl each. Retained the 3rd wash for 15 minutes and then gave one additional wash. Performed 3 times PBS wash prior to virus instillation.
Performed 3 times PBS wash prior to virus instillation.
Polidocanol procedure: Washed 2 times with 100 μl each. Retained the 3rd wash for 5 min and then gave one additional wash. Performed 3 times PBS wash prior to virus instillation.
DC-Cho procedure: Washed 2 times with 100 μl each. Retained the 3rd wash for 5 min and then gave one additional wash. Performed 3 times PBS wash prior to virus instillation.
0.4% HPMC 2910 procedure: No pretreatment. An equal volume of the virus was mixed with 0.8% solution of HPMC2910 and the mixture was instilled into the bladder for 30 minutes.
100 mg/ml Poly-Lysine procedure: No pretreatment. An equal volume of the virus was mixed with 100 mg/ml solution of Poly-Lysine and the mixture was instilled into the bladder for 30 minutes.
0.4% polyvinyl alcohol (PVA) procedure: No pretreatment. An equal volume of the virus was mixed with 0.8% solution of PVA and the mixture was instilled into the bladder for 30 minutes.
n-dodecyl-β-D glucopyranoside procedure: Washed 2 times with 100 μl each. Retained the 3rd wash for 5 min and then gave one additional wash. Performed 3 times PBS wash prior to virus instillation.
0.4% PVP procedure: No pretreatment. An equal volume of the virus was mixed with 0.8% solution of PVP and the mixture was instilled into the bladder for 30 min.
0.1% cholesterol-cyclodextrin reagent procedure: No pretreatment. An equal volume of the virus was mixed with 0.2% solution of Cholesterol-Cyclodextrin and the mixture was instilled into the bladder for 30 minutes.
n-dodecyl-β-D-maltoside procedure: Washed 2 times with 100 μl each. Retained the 3rd wash for 5 min and then gave one additional wash. Performed 3 times PBS wash prior to virus instillation.
Sodium salt of dodecyl benzenesulfonic acid procedure: Washed 2 times with 100 μl each. Retained the 3rd wash for 5 min and then gave one additional wash. Performed 3 times PBS wash prior to virus instillation.
0.1% sodium dodecyl sulphate procedure: Wash 2 times with 100 μl each. Retained the 3rd wash for 5 min and then gave one additional wash. Performed 3 times PBS wash prior to virus instillation.
0.1% Tween 20 procedure: Washed 2 times with 100 μl each. Retained the 3rd wash for 5 min and then gave one additional wash. Performed 3 times PBS wash prior to virus instillation.
0.1% Triton® X-100 procedure: Washed 2 times with 100 μl each. Retained the 3rd wash for 5 min and then gave one additional wash. Perform 3 times PBS wash prior to virus instillation.
0.1% Forlan C-24 procedure: Washed 2 times with 100 μl each. Retained the 3rd wash for 5 min and then gave one additional wash. Performed 3 times PBS wash prior to virus instillation.
0.1% decyl-b-D-maltoside procedure: Washed 2 times with 100 μl each. Retained the 3rd wash for 5 min and then gave one additional wash. Performed 3 times PBS wash prior to virus instillation.
0.1% 6-cyclohexylhexyl-b-D-maltoside procedure: Washed 2 times with 100 μl each. […]

bladder = test: Histopathology of bladders after chemical agent pretreatment (pathologists report); format: in vivo, mouse (BALB/c)
Text: Bladders fixed in whole organ fixative were sectioned and stained with hematoxylin-eosin for histologic examination.

[2] = 0.02% pre-treatment for 5 minutes
[3] = 0.05% pre-treatment for 5 minutes
[4] = 0.2% pre-treatment for 5 minutes

CCCCCCCCCCCCO[C@@H]1O[C@H](CO)[C@@H](O[C@H]2O[C@H](CO)[C@@H](O)[C@H](O)[C@H]2O)[C@H](O)[C@H]1O [n-dodecyl β-D-maltoside, n-dodecyl-β-D-maltoside]
epithelium cells transduced with Ad-βgal gene in bladder tumors [1]: ~100% | Ad-βgal gene expression in mice bladder (mice bladder urothelium): > 90% | response class (level of transduction) (bladder epithelium): strongest response | transduction of the urothelium (bladder epithelium; [2]): 50-80% | transduction of the urothelium (bladder epithelium; [3]): > 90% | transduction of the urothelium (bladder epithelium; [4]): > 90% | effect on transduction (in words) (bladder epithelium; bladder pretreatment followed by Ad-LacZ): increased transduction significantly | pathologists report (bladder; [2]): no significant lesions | pathologists report (bladder; [3]): no significant lesions | pathologists report (bladder; [4]): erosions, focal ulcer, moderate submucosal edema with mucosal compromise
